According to patent publication US10336792B2, “Antimicrobial peptide dendrimers” (priority 2014, dated 2019):
Converted amounts (≈) assume the structure as drawn. Positions of bridges follow the written chain, without caps; N, C: chain ends. Residues, ends and D or L forms follow the SMILES beside them. Groups on a side chain read outwards from the residue. Chains are numbered I, II in the order given. *: point of attachment. Stearoyl = CCCCCCCCCCCCCCCCCC(=O)*; X1 = CCCCCCCCCCCCCCCCCCCCCCCC(=O)*; Lauroyl = CCCCCCCCCCCC(=O)*; Decanoyl = CCCCCCCCCC(=O)*; Hexanoyl = CCCCCC(=O)*

How the values were obtained:
Type in all cases: cell-based
[1] = test system: Pseudomonas aeruginosa (strain PA01); test: microbe, parasite or virus in culture; conditions: strain
Method in brief: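 Broth microdilution MIC against P. aeruginosa PAO1 in LB: peptides serially diluted by ⅔, bacteria added at OD600 0.001 and incubated 18–24 h at 37 °C. MTT added; MIC is the lowest concentration preventing visible growth.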

[2] = test system: Bacillus subtilis (strain BR151); conditions: strain BR151
Method in brief: (§1)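 Broth microdilution MIC in LB; overnight cultures diluted to OD600 0.001 and mixed 1:1 with ⅔-serially diluted samples (stock 1 mg mL^−1 in H2O), 37° C for 18-24 h. MTT (0.1%) added; MIC read by eye as lowest concentration inhibiting visible growth (yellow).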

[3] = test system: Escherichia coli (strain DH5α); conditions: DH5α
Method in brief: as §1

SMILES | MIC P. aeruginosa PAO1 [1] [µg/mL] | MIC B. subtilis BR151 [2] [µg/mL] | MIC E. coli DH5α [3] [µg/mL]
CCCCCCCCCC(=O)NCCCC[C@H](NC(=O)[C@H](CC(C)C)NC(=O)[C@H](CCCCN)NC(=O)[C@H](CCCCNC(=O)[C@H](CC(C)C)NC(=O)[C@H](CCCCN)NC(=O)[C@H](CCCCNC(=O)[C@H](CC(C)C)NC(=O)[C@H](CCCCN)NC(=O)[C@H](CCCCNC(=O)[C@H](CC(C)C)NC(=O)[C@@H](N)CCCCN)NC(=O)[C@H](CC(C)C)NC(=O)[C@@H](N)CCCCN)NC(=O)[C@H](CC(C)C)NC(=O)[C@H](CCCCN)NC(=O)[C@H](CCCCNC(=O)[C@H](CC(C)C)NC(=O)[C@@H](N)CCCCN)NC(=O)[C@H](CC(C)C)NC(=O)[C@@H](N)CCCCN)NC(=O)[C@H](CC(C)C)NC(=O)[C@H](CCCCN)NC(=O)[C@H](CCCCNC(=O)[C@H](CC(C)C)NC(=O)[C@H](CCCCN)NC(=O)[C@H](CCCCNC(=O)[C@H](CC(C)C)NC(=O)[C@@H](N)CCCCN)NC(=O)[C@H](CC(C)C)NC(=O)[C@@H](N)CCCCN)NC(=O)[C@H](CC(C)C)NC(=O)[C@H](CCCCN)NC(=O)[C@H](CCCCNC(=O)[C@H](CC(C)C)NC(=O)[C@@H](N)CCCCN)NC(=O)[C@H](CC(C)C)NC(=O)[C@@H](N)CCCCN)C(N)=O [MSt-266, (KL)8(KKL)4(KKL)2(KKLKC10)] (I: H-KLK([Leu-Lys])KLKKLKKLK(Decanoyl)-NH2 / II: H-KLK([Leu-Lys])KLKKL / III: H-KLK([Leu-Lys])KL / IV: H-KLK([Leu-Lys])KL; amide I:6-IV:C, I:9-II:C, II:6-III:C) | 1 (≈ 0.208 µM) | 4 (≈ 0.83 µM) | 1 (≈ 0.208 µM)
CCCCCCCCCCCC(=O)NCCCC[C@H](NC(=O)[C@H](CC(C)C)NC(=O)[C@H](CCCCN)NC(=O)[C@H](CCCCNC(=O)[C@H](CC(C)C)NC(=O)[C@H](CCCCN)NC(=O)[C@H](CCCCNC(=O)[C@H](CC(C)C)NC(=O)[C@H](CCCCN)NC(=O)[C@H](CCCCNC(=O)[C@H](CC(C)C)NC(=O)[C@@H](N)CCCCN)NC(=O)[C@H](CC(C)C)NC(=O)[C@@H](N)CCCCN)NC(=O)[C@H](CC(C)C)NC(=O)[C@H](CCCCN)NC(=O)[C@H](CCCCNC(=O)[C@H](CC(C)C)NC(=O)[C@@H](N)CCCCN)NC(=O)[C@H](CC(C)C)NC(=O)[C@@H](N)CCCCN)NC(=O)[C@H](CC(C)C)NC(=O)[C@H](CCCCN)NC(=O)[C@H](CCCCNC(=O)[C@H](CC(C)C)NC(=O)[C@H](CCCCN)NC(=O)[C@H](CCCCNC(=O)[C@H](CC(C)C)NC(=O)[C@@H](N)CCCCN)NC(=O)[C@H](CC(C)C)NC(=O)[C@@H](N)CCCCN)NC(=O)[C@H](CC(C)C)NC(=O)[C@H](CCCCN)NC(=O)[C@H](CCCCNC(=O)[C@H](CC(C)C)NC(=O)[C@@H](N)CCCCN)NC(=O)[C@H](CC(C)C)NC(=O)[C@@H](N)CCCCN)C(N)=O [MSt-267, (KL)8(KKL)4(KKL)2(KKLKC12)] (I: H-KLK([Leu-Lys])KLKKLKKLK(Lauroyl)-NH2 / II: H-KLK([Leu-Lys])KLKKL / III: H-KLK([Leu-Lys])KL / IV: H-KLK([Leu-Lys])KL; amide I:6-IV:C, I:9-II:C, II:6-III:C) | 1 (≈ 0.206 µM) | 4 (≈ 0.826 µM) | 1 (≈ 0.206 µM)
CCCCCCCCCCCCCCCCCC(=O)NCCCC[C@H](NC(=O)[C@H](CC(C)C)NC(=O)[C@H](CCCCN)NC(=O)[C@H](CCCCNC(=O)[C@H](CC(C)C)NC(=O)[C@H](CCCCN)NC(=O)[C@H](CCCCNC(=O)[C@H](CC(C)C)NC(=O)[C@H](CCCCN)NC(=O)[C@H](CCCCNC(=O)[C@H](CC(C)C)NC(=O)[C@@H](N)CCCCN)NC(=O)[C@H](CC(C)C)NC(=O)[C@@H](N)CCCCN)NC(=O)[C@H](CC(C)C)NC(=O)[C@H](CCCCN)NC(=O)[C@H](CCCCNC(=O)[C@H](CC(C)C)NC(=O)[C@@H](N)CCCCN)NC(=O)[C@H](CC(C)C)NC(=O)[C@@H](N)CCCCN)NC(=O)[C@H](CC(C)C)NC(=O)[C@H](CCCCN)NC(=O)[C@H](CCCCNC(=O)[C@H](CC(C)C)NC(=O)[C@H](CCCCN)NC(=O)[C@H](CCCCNC(=O)[C@H](CC(C)C)NC(=O)[C@@H](N)CCCCN)NC(=O)[C@H](CC(C)C)NC(=O)[C@@H](N)CCCCN)NC(=O)[C@H](CC(C)C)NC(=O)[C@H](CCCCN)NC(=O)[C@H](CCCCNC(=O)[C@H](CC(C)C)NC(=O)[C@@H](N)CCCCN)NC(=O)[C@H](CC(C)C)NC(=O)[C@@H](N)CCCCN)C(N)=O [MSt-284, (KL)8(KKL)4(KKL)2(KKLKC18)] (I: H-KLK([Leu-Lys])KLKKLKKLK(Stearoyl)-NH2 / II: H-KLK([Leu-Lys])KLKKL / III: H-KLK([Leu-Lys])KL / IV: H-KLK([Leu-Lys])KL; amide I:6-IV:C, I:9-II:C, II:6-III:C) | 9 (≈ 1.83 µM) | 6 (≈ 1.22 µM) | 3 (≈ 0.609 µM)
CCCCCCCCCCCCCCCCCCCCCCCC(=O)NCCCC[C@H](NC(=O)[C@H](CC(C)C)NC(=O)[C@H](CCCCN)NC(=O)[C@H](CCCCNC(=O)[C@H](CC(C)C)NC(=O)[C@H](CCCCN)NC(=O)[C@H](CCCCNC(=O)[C@H](CC(C)C)NC(=O)[C@H](CCCCN)NC(=O)[C@H](CCCCNC(=O)[C@H](CC(C)C)NC(=O)[C@@H](N)CCCCN)NC(=O)[C@H](CC(C)C)NC(=O)[C@@H](N)CCCCN)NC(=O)[C@H](CC(C)C)NC(=O)[C@H](CCCCN)NC(=O)[C@H](CCCCNC(=O)[C@H](CC(C)C)NC(=O)[C@@H](N)CCCCN)NC(=O)[C@H](CC(C)C)NC(=O)[C@@H](N)CCCCN)NC(=O)[C@H](CC(C)C)NC(=O)[C@H](CCCCN)NC(=O)[C@H](CCCCNC(=O)[C@H](CC(C)C)NC(=O)[C@H](CCCCN)NC(=O)[C@H](CCCCNC(=O)[C@H](CC(C)C)NC(=O)[C@@H](N)CCCCN)NC(=O)[C@H](CC(C)C)NC(=O)[C@@H](N)CCCCN)NC(=O)[C@H](CC(C)C)NC(=O)[C@H](CCCCN)NC(=O)[C@H](CCCCNC(=O)[C@H](CC(C)C)NC(=O)[C@@H](N)CCCCN)NC(=O)[C@H](CC(C)C)NC(=O)[C@@H](N)CCCCN)C(N)=O [MSt-285, (KL)8(KKL)4(KKL)2(KKLKC24)] (I: H-KLK([Leu-Lys])KLKKLKKLK(X1)-NH2 / II: H-KLK([Leu-Lys])KLKKL / III: H-KLK([Leu-Lys])KL / IV: H-KLK([Leu-Lys])KL; amide I:6-IV:C, I:9-II:C, II:6-III:C) | 12 (≈ 2.39 µM) | 16 (≈ 3.19 µM) | 5 (≈ 0.997 µM)
CCCCCCCCCCCCCCCCCC(=O)NCCCC[C@H](NC(=O)[C@H](CC(C)C)NC(=O)[C@H](CCCCN)NC(=O)[C@H](CCCCNC(=O)[C@H](CC(C)C)NC(=O)[C@H](CCCCN)NC(=O)[C@H](CCCCNC(=O)[C@H](CC(C)C)NC(=O)[C@@H](N)CCCCN)NC(=O)[C@H](CC(C)C)NC(=O)[C@@H](N)CCCCN)NC(=O)[C@H](CC(C)C)NC(=O)[C@H](CCCCN)NC(=O)[C@H](CCCCNC(=O)[C@H](CC(C)C)NC(=O)[C@@H](N)CCCCN)NC(=O)[C@H](CC(C)C)NC(=O)[C@@H](N)CCCCN)C(N)=O [MSt-286, (KL)4(KKL)2(KKLKC18)] (I: H-KLK([Leu-Lys])KLKKLK(Stearoyl)-NH2 / II: H-KLK([Leu-Lys])KL; amide I:6-II:C; N-terminus assumed) | 4 (≈ 1.61 µM) | 4 (≈ 1.61 µM) | 3 (≈ 1.21 µM)

Other lines, results leading:

MIC P. aeruginosa PAO1 [1] [µg/mL] | MIC B. subtilis BR151 [2] [µg/mL] | MIC E. coli DH5α [3] [µg/mL] | SMILES
2 (≈ 0.376 µM) | 1 (≈ 0.188 µM) | 5 (≈ 0.94 µM) | CCCCCC(=O)N[C@@H](CCCCN)C(=O)N[C@@H](CC(C)C)C(=O)NCCCC[C@H](NC(=O)[C@H](CC(C)C)NC(=O)[C@H](CCCCN)NC(=O)CCCCC)C(=O)N[C@@H](CCCCN)C(=O)N[C@@H](CC(C)C)C(=O)NCCCC[C@H](NC(=O)[C@H](CC(C)C)NC(=O)[C@H](CCCCN)NC(=O)[C@H](CCCCNC(=O)[C@H](CC(C)C)NC(=O)[C@H](CCCCN)NC(=O)CCCCC)NC(=O)[C@H](CC(C)C)NC(=O)[C@H](CCCCN)NC(=O)CCCCC)C(=O)N[C@@H](CCCCN)C(=O)N[C@@H](CC(C)C)C(=O)NCCCC[C@H](NC(=O)[C@H](CC(C)C)NC(=O)[C@H](CCCCN)NC(=O)[C@H](CCCCNC(=O)[C@H](CC(C)C)NC(=O)[C@H](CCCCN)NC(=O)[C@H](CCCCNC(=O)[C@H](CC(C)C)NC(=O)[C@H](CCCCN)NC(=O)CCCCC)NC(=O)[C@H](CC(C)C)NC(=O)[C@H](CCCCN)NC(=O)CCCCC)NC(=O)[C@H](CC(C)C)NC(=O)[C@H](CCCCN)NC(=O)[C@H](CCCCNC(=O)[C@H](CC(C)C)NC(=O)[C@H](CCCCN)NC(=O)CCCCC)NC(=O)[C@H](CC(C)C)NC(=O)[C@H](CCCCN)NC(=O)CCCCC)C(=O)N[C@@H](CCCCN)C(=O)N[C@@H](CC(C)C)C(N)=O [MSt-288, (C6KL)8(KKL)4(KKL)2(KKL)] (I: Hexanoyl-KLK([Leu-Lys-Hexanoyl])KLKKLKKL-NH2 / II: Hexanoyl-KLK([Leu-Lys-Hexanoyl])KLKKL / III: Hexanoyl-KLK([Leu-Lys-Hexanoyl])KL / IV: Hexanoyl-KLK([Leu-Lys-Hexanoyl])KL; amide I:6-IV:C, I:9-II:C, II:6-III:C)
2 (≈ 0.805 µM) | 1 (≈ 0.403 µM) | 1 (≈ 0.403 µM) | CCCCCC(=O)N[C@@H](CCCCN)C(=O)N[C@@H](CC(C)C)C(=O)NCCCC[C@H](NC(=O)[C@H](CC(C)C)NC(=O)[C@H](CCCCN)NC(=O)CCCCC)C(=O)N[C@@H](CCCCN)C(=O)N[C@@H](CC(C)C)C(=O)NCCCC[C@H](NC(=O)[C@H](CC(C)C)NC(=O)[C@H](CCCCN)NC(=O)[C@H](CCCCNC(=O)[C@H](CC(C)C)NC(=O)[C@H](CCCCN)NC(=O)CCCCC)NC(=O)[C@H](CC(C)C)NC(=O)[C@H](CCCCN)NC(=O)CCCCC)C(=O)N[C@@H](CCCCN)C(=O)N[C@@H](CC(C)C)C(N)=O [MSt-290, (C6KL)4(KKL)2(KKL)] (I: Hexanoyl-KLK([Leu-Lys-Hexanoyl])KLKKL-NH2 / II: Hexanoyl-KLK([Leu-Lys-Hexanoyl])KL; amide I:6-II:C)
